Where “and” joins values, the source holds several entries; their conditions need not be identical. Equal entries are not always repeated. Structures can show the parent of a compound that is named as a salt. Where two headings read alike, the source gives them in different places.
Columns and labels:
[1] = Plasma pharmacokinetics of a CTN HCl formulation, 164.4 mg dose (Table 11); assay type: in vivo, human; conditions: for Tmax: median
Protocol: The plasma pharmacokinetics from a CTN HCl formulation having a dose of 164.4 mg can be as in Table 11.

[2] = Plasma pharmacokinetics of CTN HCl formulation, 164.4 mg or 328.8 mg, First Day and Fifth Day (Table 12); assay type: in vivo, human; conditions: for AUC ratio / Cmax ratio: Fifth Day/First Day; for Tmax: n = 8, median; for Cmax / AUC(0-t) / concentration at 1 h / concentration at 12 h / concentration at 16 h / AUC(0-inf): n = 8, mean; for AUC(0-t): read-out: AUC0-24 h; for concentration at 1 h: read-out: C1 hr; for concentration at 12 h: read-out: C12 hr; for concentration at 16 h: read-out: C16 hr
Protocol: The plasma pharmacokinetics from a CTN HCl formulation having a dose of 164.4 mg or 328.8 mg can be as in Table 12.

[3] = Biopharmaceutics classification (solubility, permeability); assay type: physicochemical
From the text: Described herein are methods of using centanafadine (CTN) or a pharmaceutically acceptable salt thereof for the treatment of central nervous system disorders. […] As used herein, CTN should be understood to refer to centanafadine, while pharmaceutically acceptable salts thereof are also considered in addition to or as one or more alternatives to CTN in every method, use, and formulation described herein, unless explicitly stated otherwise. Centanafadine [CAS 924012-43-1], also known chemically as (1R,5S)-1-(naphthalen-2-yl)-3-azabicyclo[3.1.0]hexane or (+)-1-(naphthalen-2-yl)-3-azabicyclo[3.1.0]hexane, has the following structure: […]

adult subjects with MDD [4] = assay: Phase 2 trial, centanafadine XR as adjunct to escitalopram in MDD (Example 2); assay type: in vivo, human
From the text: Inclusion and Exclusion criteria are the same as Example 1. In addition, subjects who are taking escitalopram or citalopram at the time of screening, have been exposed to escitalopram or citalopram in their current MDE, or have reported an inadequate response to an adequate dose/duration of escitalopram or citalopram in the past, are also excluded.
All subjects receive either escitalopram monotherapy, centanafadine QD XR capsules+escitalopram (combination therapy), or matching placebo, for 6 weeks.
For day 1, the escitalopram tablet is a 10 mg QD dose. At Week 1, dosing increases to 20 mg QD for the remainder of subject participation in the trial.
Subjects assigned to receive escitalopram monotherapy receive a 10 mg QD dose at Day 1. At Week 1, dosing increases to 20 mg QD for the remainder of subject participation in the trial. Dose reductions are not permitted.

[5] = Safety and tolerability (adverse events); conditions: in vivo
adult subjects with MDD [6] = assay: Phase 2 trial, centanafadine XR monotherapy in MDD (Example 1); conditions: 328.8 mg once daily XR
[7] = biological target: dopamine reuptake transporter (DAT) (Homo sapiens, UniProt Q01959); assay: Reuptake transporter inhibition, DAT; assay type: biochemical
Sequence of dopamine reuptake transporter (DAT) (Q01959 whole entry, species assumed): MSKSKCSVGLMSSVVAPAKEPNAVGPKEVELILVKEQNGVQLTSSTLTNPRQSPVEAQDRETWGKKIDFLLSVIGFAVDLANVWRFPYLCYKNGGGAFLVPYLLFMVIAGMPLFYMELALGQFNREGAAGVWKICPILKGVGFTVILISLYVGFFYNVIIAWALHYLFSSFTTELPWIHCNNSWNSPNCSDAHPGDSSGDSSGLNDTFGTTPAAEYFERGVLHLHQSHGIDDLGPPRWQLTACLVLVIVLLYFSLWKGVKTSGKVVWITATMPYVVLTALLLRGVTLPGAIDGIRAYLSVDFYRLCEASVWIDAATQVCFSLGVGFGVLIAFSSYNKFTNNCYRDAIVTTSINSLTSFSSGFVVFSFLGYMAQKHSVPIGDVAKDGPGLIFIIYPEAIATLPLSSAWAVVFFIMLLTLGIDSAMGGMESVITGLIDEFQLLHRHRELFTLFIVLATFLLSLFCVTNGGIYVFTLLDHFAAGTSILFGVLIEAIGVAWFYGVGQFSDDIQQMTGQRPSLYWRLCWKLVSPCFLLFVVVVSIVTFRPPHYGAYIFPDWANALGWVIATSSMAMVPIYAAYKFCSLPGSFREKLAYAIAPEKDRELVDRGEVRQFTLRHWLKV
From the text: (§1) and is an unbalanced triple reuptake inhibitor with the most potency towards the norepinephrine reuptake transporter (NET), one-sixth as much towards the dopamine reuptake transporter (DAT), and one-fourteenth as much towards the serotonin reuptake transporter (SERT).

[8] = biological target: norepinephrine reuptake transporter (NET) (Homo sapiens, UniProt P23975); assay: Reuptake transporter inhibition, NET; assay type: biochemical; conditions: relative among NET, DAT, SERT
Sequence of norepinephrine reuptake transporter (NET) (P23975 whole entry): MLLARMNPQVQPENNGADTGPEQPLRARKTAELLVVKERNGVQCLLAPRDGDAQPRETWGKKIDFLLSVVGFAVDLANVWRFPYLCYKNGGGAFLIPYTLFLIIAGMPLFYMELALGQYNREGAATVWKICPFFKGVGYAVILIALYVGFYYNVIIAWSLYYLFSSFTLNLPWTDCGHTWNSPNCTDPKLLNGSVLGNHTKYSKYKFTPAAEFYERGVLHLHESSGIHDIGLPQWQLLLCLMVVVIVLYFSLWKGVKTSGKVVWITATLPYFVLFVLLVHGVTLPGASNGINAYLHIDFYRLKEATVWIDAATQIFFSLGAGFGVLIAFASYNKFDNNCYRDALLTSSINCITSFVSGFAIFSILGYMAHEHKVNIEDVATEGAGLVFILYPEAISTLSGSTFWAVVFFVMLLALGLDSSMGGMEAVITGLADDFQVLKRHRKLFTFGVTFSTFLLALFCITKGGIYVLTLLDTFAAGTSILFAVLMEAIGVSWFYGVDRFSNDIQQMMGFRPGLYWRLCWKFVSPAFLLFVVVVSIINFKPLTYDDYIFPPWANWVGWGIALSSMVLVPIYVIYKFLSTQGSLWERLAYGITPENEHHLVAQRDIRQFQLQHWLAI
From the text: as §1

[9] = biological target: serotonin reuptake transporter (SERT) (Homo sapiens, UniProt P31645); assay: Reuptake transporter inhibition, SERT; assay type: biochemical
Sequence of serotonin reuptake transporter (SERT) (P31645 whole entry, species assumed): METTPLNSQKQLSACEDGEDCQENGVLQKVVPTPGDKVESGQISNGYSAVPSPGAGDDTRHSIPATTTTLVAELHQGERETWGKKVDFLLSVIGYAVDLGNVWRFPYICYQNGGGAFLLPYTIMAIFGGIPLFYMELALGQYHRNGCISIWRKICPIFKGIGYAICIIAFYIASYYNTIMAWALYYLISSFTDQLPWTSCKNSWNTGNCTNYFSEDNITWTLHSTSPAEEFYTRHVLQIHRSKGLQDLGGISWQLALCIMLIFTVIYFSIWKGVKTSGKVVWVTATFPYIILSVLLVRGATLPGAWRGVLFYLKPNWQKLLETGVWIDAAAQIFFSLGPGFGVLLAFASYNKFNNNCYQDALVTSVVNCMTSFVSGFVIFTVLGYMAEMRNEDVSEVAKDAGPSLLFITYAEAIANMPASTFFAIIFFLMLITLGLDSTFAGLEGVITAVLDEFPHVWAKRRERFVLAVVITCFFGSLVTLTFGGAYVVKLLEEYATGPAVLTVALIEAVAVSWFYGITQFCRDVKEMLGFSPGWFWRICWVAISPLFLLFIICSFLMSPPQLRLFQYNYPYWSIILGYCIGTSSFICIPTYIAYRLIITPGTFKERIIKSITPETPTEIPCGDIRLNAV
From the text: as §1

[10] = human, plasma, 164.4 mg, Fifth Day
[11] = human, plasma, 164.4 mg, First Day
[12] = human, plasma, 328.8 mg, First Day
[13] = human, plasma, oral, 164.4 mg, Fifth Day
[14] = human, plasma, oral, 164.4 mg, First Day
[15] = human, plasma, oral, 328.8 mg, Fifth Day
[16] = human, plasma, oral, 328.8 mg, First Day

## c1ccc2cc([C@]34CNC[C@H]3C4)ccc2c1 [Centanafadine HCl]
[1]
  AUC0-24 h: 5290 ng·h/mL
  C1 hr: 302 ng/mL and 321 ng/mL and 358 ng/mL
  C12 hr: 186 ng/mL and 220 ng/mL and 289 ng/mL
  Cmax: 618 ng/mL and 629 ng/mL
  Tmax: 4.5 h and 5 h
[1]; human, oral, read-out: tmax
  Tmax: 4 to 7.5 h
[1]; human, oral, n = 11, read-out: AUC0-inf
  AUC(0-inf): 5000 to 8000 ng·h/mL
[1]; human, oral, read-out: AUC0-1 h
  AUC(0-t): 150 to 500 ng·h/mL
[1]; human, oral, read-out: AUC0-24 h
  AUC(0-t): 4500 to 7500 ng·h/mL
[1]; human, oral, read-out: Cmax
  Cmax: 500 to 700 ng/mL
[1]; n = 11
  AUC(0-inf): 6240 ng·h/mL and 7110 ng·h/mL
[2]; 164.4 mg
  AUC ratio: 0.98
  Cmax ratio: 1.13
[2]; 328.8 mg, Fifth Day
  Tmax: 5.00 h
[2]; 328.8 mg
  AUC ratio: 1.16
  Cmax ratio: 1.31
[2]; [10]
  Cmax: 709 ng/mL
  AUC(0-t): 6650 ng·h/mL
[2]; [11]
  Cmax: 651 ng/mL
  AUC(0-t): 6570 ng·h/mL
  AUC(0-inf): 7110 ng·h/mL
[2]; human, plasma, 328.8 mg, Fifth Day
  AUC(0-t): 18400 ng·h/mL
[2]; [12]
  AUC(0-t): 16000 ng·h/mL
  AUC(0-inf): 16700 ng·h/mL
[2]; [13]
  concentration at 1 h: 427 ng/mL
  concentration at 12 h: 276 ng/mL
  concentration at 16 h: 103 ng/mL
[2]; human, plasma, oral, 164.4 mg, Fifth Day, read-out: tmax
  Tmax: 5.5 h
[2]; [14]
  concentration at 1 h: 358 ng/mL
  concentration at 12 h: 289 ng/mL
  concentration at 16 h: 133 ng/mL
[2]; human, plasma, oral, 164.4 mg, First Day, read-out: tmax
  Tmax: 7 h
[2]; [15]
  Cmax: 2230 ng/mL
  concentration at 1 h: 718 ng/mL
  concentration at 12 h: 646 ng/mL
  concentration at 16 h: 211 ng/mL
[2]; [16]
  Cmax: 1940 ng/mL
  concentration at 1 h: 640 ng/mL
  concentration at 12 h: 750 ng/mL
  concentration at 16 h: 306 ng/mL
[2]; human, plasma, oral, 328.8 mg, First Day, read-out: tmax
  Tmax: 4 h

## c1ccc2cc([C@]34CNC[C@H]3C4)ccc2c1 [Centanafadine, (1R,5S)-1-(naphthalen-2-yl)-3-azabicyclo[3.1.0]hexane]
[3]
  BSC classification: Class I
  solubility: highly soluble
[3]; not told
  permeability: highly permeable
Adult subjects with MDD [4]; 6 weeks combination therapy (centanafadine XR 328.8 mg + escitalopram 10-20 mg QD) vs escitalopram monotherapy
  mean decrease of primary efficacy measures (MADRS Total score): greater
Adult subjects with MDD [4]; centanafadine XR 328.8 mg + escitalopram, 6 weeks
  efficacy as adjunct therapy to SSRI (escitalopram) in patients with MDD: effective as an adjunct therapy
[5]
  safety and tolerability, rate of adverse events (AEs): generally safe and well tolerated
Adult subjects with MDD [6]; 6 weeks
  SF-36v2 general scores from baseline: Increased
  efficacy as monotherapy in patients with MDD: effective as monotherapy
  risk for depression (SF-36v2): reduced
Adult subjects with MDD [6]; 6 weeks, vs placebo
  CGI-C scores: significant reductions
  CGI-S scores from baseline: significant reductions
  PGI-C scores: significant reductions
  PGI-S scores from baseline: significant reductions
Adult subjects with MDD [6]; after 6-week double-blind treatment, vs placebo
  primary efficacy measures (MADRS Total score): significantly reduces
[7]
  potency towards DAT relative to NET: one-sixth
[8]
  potency towards NET: most potency
[9]
  potency towards SERT relative to NET: one-fourteenth

Source: US20250375418A1, “1-(NAPHTHALEN-2-YL)-3-AZABICYCLO[3.1.0]HEXANE FOR TREATING MAJOR DEPRESSIVE DISORDER” (OTSUKA PHARMACEUTICAL CO., LTD., priority 2022, published 2025)
